In the experiment the target is Amyloid-beta precursor protein (Homo sapiens) (UniProt P05067). Nature of the experiment: Binding affinity to amyloid beta (1 to 40 residues) (unknown origin) aggregation assessed as fold increase in fluorescence intensity.

Each structure is given as a SMILES string.

Amyloid-beta precursor protein (Homo sapiens), sequence (P05067 whole entry, the tested form may be a part): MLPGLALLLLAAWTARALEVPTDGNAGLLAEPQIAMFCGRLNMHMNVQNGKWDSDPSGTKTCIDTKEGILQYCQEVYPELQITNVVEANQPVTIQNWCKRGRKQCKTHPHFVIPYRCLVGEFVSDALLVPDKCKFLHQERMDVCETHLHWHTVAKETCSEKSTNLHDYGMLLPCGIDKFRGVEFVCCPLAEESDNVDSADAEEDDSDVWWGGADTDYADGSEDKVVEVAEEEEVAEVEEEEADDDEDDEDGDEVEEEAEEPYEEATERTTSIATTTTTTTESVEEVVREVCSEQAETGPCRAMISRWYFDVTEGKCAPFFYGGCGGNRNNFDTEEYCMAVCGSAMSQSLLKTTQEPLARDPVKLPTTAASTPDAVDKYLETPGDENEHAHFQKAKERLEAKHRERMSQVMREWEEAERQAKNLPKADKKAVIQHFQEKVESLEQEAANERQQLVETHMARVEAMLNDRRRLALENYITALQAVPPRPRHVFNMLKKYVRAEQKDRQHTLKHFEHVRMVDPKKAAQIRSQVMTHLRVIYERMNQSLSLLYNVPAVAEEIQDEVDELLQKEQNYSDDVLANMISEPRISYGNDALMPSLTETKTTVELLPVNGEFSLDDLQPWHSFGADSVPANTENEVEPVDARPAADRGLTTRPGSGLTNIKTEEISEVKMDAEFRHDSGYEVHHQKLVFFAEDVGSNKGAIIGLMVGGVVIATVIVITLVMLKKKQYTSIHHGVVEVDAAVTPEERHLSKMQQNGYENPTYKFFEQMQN

On to `CN(C)c1ccc(/C=C/C2=CC(/C=C/c3ccc(N(C)C)cc3)=[O+][B-](F)(F)O2)cc1`, for which the fold change (FC) is 70.
